Data set [1] relates to anaerobes isolated from the oral cavity. The data set can be described thus: Susceptibility (MIC), agar dilution, anaerobes from the oral cavity. In kind it is cell-based, anaerobic bacteria. Particulars: explored range 0.2 to 3.5 mg/ml. On the procedure: (§1) The investigations included more than hundred strains isolated from the oral cavity: : anaerobes, microaerophilic bacteria, aerobes, Streptococcus spp. and yeast like fungi. The microorganisms were isolated from saliva, mucosal membrane, gingival pockets and caries decay. The susceptibility (MIC) of bacteria and yeastlike fungi were determined by means of plate dilution technique in agar.
(§2) The investigated samples were dissolved in sterile distilled water (immediately before the experiment) to obtain the following concentrations: 3.5, 1.7, 0.8, 0.4 and 0.2 mg/ml and were added into appropriate agar. The plates were inoculated using a Steers multipoint inoculator. Inoculum contained 10^6 CFU/spot. In each experimental series, the growth of strains on the culture medium without the compounds investigated was checked. The concentration at which no macroscopic growth of the microbes was observed on the medium was regarded as the lowest concentration, inhibiting the growth of microbes (MIC). The examinations of the susceptibility of microbes to the peptides were carried out twice.
(§3) Anaerobes. The susceptibility of bacteria was determined by means of the agar dilution methods with Brucella agar supplemented with 5% defibrinated sheep's blood, menadione and hemin. Sample solutions with concentrations from of 3.5-0.2 mg/ml were added into agar. The agar plate without investigated samples was included as a bacterial growth control. The inoculum of 10^6 CFU/ml was applied to the agar plates with Steers replicator. Incubation was performed for 48 hrs at 37° C. (310° K) in anaerobic jars containing a mixture of 10% CO2, 10% H2 and 80% N2, in the presence of palladium catalyst and indicator of anaerobiosis. Microaerophilic bacteria. The susceptibility of bacteria was determined by means of the agar dilution methods with Brucella agar supplemented with 5% sheep's blood. Samples solutions with concentrations from of 3.5- 0.2 mg/ml were added into agar. The agar plate without investigated samples was included as a bacterial growth control. The inoculum of 10^6 CFU/ml was applied to the agar plates with Steers replicator. The incubation was performed at 37° C. in anaerobic jars with Campy Pak (bio Merieux) for 48 hours. Streptococcus spp. The susceptibility of bacteria was determined by means of the agar dilution methods with Mueller-Hinton agar supplemented with 5% sheep's blood. Samples solutions with concentrations from of 3.5- 0.2 mg/ml were added into agar. The agar plate without investigated samples was included as a bacterial growth control. The inoculum of 10^6 CFU/ml was applied to the agar plates with Steers replicator. Incubation was performed for 24 hrs at 37° C. (310° K) in anaerobic jars containing a mixture of 10% CO2 and 90% N2. Aerobes. The susceptibility to investigated samples was determined by means of the plate dilution technique in Mueller-Hinton agar. Samples solutions with concentrations from of 3.5- 0.2 mg/ml were added into agar. The agar plate without investigated samples was included as a bacterial growth control. The inoculum of 10^6 CFU/ml was applied to the agar plates with Steers replicator. Plates were incubated for 24 hrs in 37° C. under aerobic conditions. Yeast like fungi. The susceptibility of fungi to investigated samples was determined by means of the plate dilution technique in Sabouraud's agar. Samples solutions with concentrations from of 3.5- 0.2 mg/ml were added into agar. […]
(In agar dilution, organisms are placed on agar that contains the substance at set levels.)

In data set [2] the test system is aerobes isolated from the oral cavity. The data set can be described thus: Susceptibility (MIC), agar dilution, aerobes from the oral cavity. It is filed as cell-based, aerobic bacteria. Particulars: explored range 0.2 to 3.5 mg/ml. As to the method:
as §1, §2
as §3, with “control. […]” for “control. The inoculum of 10^6 CFU/ml was applied to the agar plates with Steers replicator. Incubation was performed for 24 hrs at 37° C. (310° K) in anaerobic jars containing a mixture of 10% CO2 and 90% N2. Aerobes.”, “agar. […]” for “agar. Samples solutions with concentrations from of 3.5- 0.2 mg/ml were added into agar. The agar plate without investigated samples was included as a bacterial growth control. The inoculum of 10^6 CFU/ml was applied to the agar plates with Steers replicator. Plates were incubated for 24 hrs in 37° C. under aerobic conditions. Yeast like fungi.”, “agar.” for “agar. Samples solutions with concentrations from of 3.5- 0.2 mg/ml were added into agar.”

A short description of another data set: Solubility in water. It is filed as physicochemical.

Regarding “3-hydroxyphthalated e-polylysine [Product 27]”, the activity against anaerobes result in data set [1] was “less effective”. Further, in data set [2], the activity against aerobes result was “not active”. Moreover, in the data set “Solubility in water”, the “pH at which soluble in water” value was “above 9”.

Source of the values: patent US20080226565A1, “Anticariogenic Proteins & Peptides & Saccharides” (priority 2004, published 2008).
